Experimental data taken from patent US20150086647A1, “PEROXYGEN RELEASE COMPOSITIONS AND METHOD FOR PRODUCING THEM” (CREACHEM SA, priority 2012, published 2015).

Assay: Stability in the presence of ferric EDTA (Fe-catalyzed hydrogen peroxide decomposition)
Format: physicochemical
Conditions: with ferric EDTA; for hydrogen peroxide concentration: diluted with tap water
Procedure: Approximately 250 μL of a 3% solution of ferric EDTA (ethylenediaminetetracetic acid), at pH 7, was added to 3.5 grams of the composition obtained from EXAMPLE I.
The same amount of ferric EDTA was added to 3.5 grams of a 27.5% wt H2O2 solution. Both the 3.5 grams of the composition according to EXAMPLE I and the 3.5 grams H2O2 solution, both containing the ferric EDTA, were diluted with a quantity of tap water until the water contained 50 ppm of H2O2, determined with colorimetric reagent strips (Merck).
The following table indicates the evolution of the hydrogen peroxide concentration (ppm) in both samples.

gas bubbles indicating Fe-catalyzed hydrogen peroxide decomposition (diluted to 50 ppm H2O2): appeared almost instantly | hydrogen peroxide concentration (0 h): 50 ppm | hydrogen peroxide concentration (4 h): 20 ppm | hydrogen peroxide concentration (18 h): 15 ppm
Substance: H2O2 [Diluted H2O2]
